For assay [1], the target named is Sodium-dependent dopamine transporter (Rattus norvegicus, UniProt P23977).
For assay [2], the target named is T1, Muscarinic acetylcholine receptor M2 (Rattus norvegicus, UniProt P10980).
T1 sequence (P10980 whole entry): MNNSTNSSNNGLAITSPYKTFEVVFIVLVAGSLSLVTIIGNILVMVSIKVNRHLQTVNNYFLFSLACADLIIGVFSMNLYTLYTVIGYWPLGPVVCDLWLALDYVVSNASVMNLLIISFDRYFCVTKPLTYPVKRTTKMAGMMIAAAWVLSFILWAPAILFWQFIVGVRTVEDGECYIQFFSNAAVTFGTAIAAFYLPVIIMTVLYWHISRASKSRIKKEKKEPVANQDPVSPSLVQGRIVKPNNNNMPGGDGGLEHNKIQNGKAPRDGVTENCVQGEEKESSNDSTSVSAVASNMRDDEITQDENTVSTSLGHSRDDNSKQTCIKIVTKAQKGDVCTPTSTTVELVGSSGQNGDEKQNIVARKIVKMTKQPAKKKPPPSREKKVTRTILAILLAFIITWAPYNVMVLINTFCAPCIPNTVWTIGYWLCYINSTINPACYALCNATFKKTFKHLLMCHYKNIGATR

Assay [3] concerns the target Norepinephrine transporter (Rattus norvegicus, UniProt Q9JIA2).

Where a name gives a salt, the structure may show the parent alone.

Sequence of Sodium-dependent dopamine transporter (P23977 whole entry): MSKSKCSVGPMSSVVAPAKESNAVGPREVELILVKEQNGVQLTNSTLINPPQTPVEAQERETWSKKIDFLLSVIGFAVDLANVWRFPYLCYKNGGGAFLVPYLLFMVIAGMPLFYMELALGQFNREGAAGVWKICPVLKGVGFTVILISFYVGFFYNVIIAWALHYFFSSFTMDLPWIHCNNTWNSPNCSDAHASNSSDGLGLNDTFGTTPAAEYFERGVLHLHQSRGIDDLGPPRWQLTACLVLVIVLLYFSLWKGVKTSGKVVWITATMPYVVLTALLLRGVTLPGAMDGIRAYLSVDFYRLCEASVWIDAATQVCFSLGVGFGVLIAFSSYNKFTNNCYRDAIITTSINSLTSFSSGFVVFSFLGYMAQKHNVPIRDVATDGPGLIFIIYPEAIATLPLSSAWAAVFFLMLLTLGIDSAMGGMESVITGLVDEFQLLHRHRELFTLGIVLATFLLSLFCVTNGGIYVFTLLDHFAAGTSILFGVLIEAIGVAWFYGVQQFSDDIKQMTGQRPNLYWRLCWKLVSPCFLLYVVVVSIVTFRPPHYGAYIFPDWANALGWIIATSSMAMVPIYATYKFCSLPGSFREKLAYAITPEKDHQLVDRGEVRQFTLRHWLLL

With `CNC/C=C(/c1ccc(Br)cc1)c1cccnc1`, in assay [1], the Ki – broadly, a dissociation constant, usually derived from enzyme kinetics or from competition with a known ligand – is over 10 µM.

`CN(C)CCC=C1c2ccccc2CCc2ccccc21`: the inhibition constant Ki in assay [1] was over 10 µM; in assay [2], 0.32 µM; in assay [3], 0.13 µM.

As to `N[C@H]1CC[C@@H](c2ccc(Cl)c(Cl)c2)c2ccccc21`, the Ki in assay [1] is 3.8 µM; in assay [3], 4.6 µM.

In assay [2], `CN(C)CC/C=C1/c2ccccc2COc2ccccc21` came in with a Ki of 0.71 µM.

Consider `CN[C@@H]1CC[C@@H](c2ccccc2)c2ccccc21`, for which the Ki in assay [1] was 0.15 µM; in assay [2], 4.7 µM; in assay [3], 0.018 µM.

With `COCCCC/C(=N\OCCN)c1ccc(C(F)(F)F)cc1` [(1E)-5-methoxy-1-[4-(trifluoromethyl)phenyl]pentan-1-one O-(2-aminoethyl)oxime], the Ki in assay [1] was over 10 µM; in assay [3], 1.9 µM.

In assay [1], `CN(C)CCCN1c2ccccc2CCc2ccc(Cl)cc21` [CLOMIPRAMINE HYDROCHLORIDE] had an inhibition constant (Ki) of 8.1 µM.

In assay [2], `CNCCCN1c2ccccc2CCc2ccccc21` [Desmethylimipramine] showed an inhibition constant Ki of 3.5 µM.

With `CNCCC=C1c2ccccc2CCc2ccccc21` [NORTRIPTYLINE], the inhibition constant Ki was over 10 µM in assay [1] and 0.025 µM in assay [3].

Compound `CN[C@@H]1CC[C@@H](c2ccc(Cl)c(Cl)c2)c2ccccc21` [[4-(3,4-Dichloro-phenyl)-1,2,3,4-tetrahydro-naphthalen-1-yl]-methyl-amine] registered an inhibition constant Ki in assay [2] of over 10 µM.

With `CN(C)C/C=C(/c1ccc(Br)cc1)c1cccnc1` [cis-[3-(4-Bromo-phenyl)-3-pyridin-3-yl-allyl]-dimethyl-amine;HCl], the inhibition constant (Ki) in assay [1] was over 10 µM.

The values are drawn from BindingDB's records for PubMed 6310078 (Pfizer, 1983).
